Assay results reported in paper PMC9952520, “Anti-Biofilm Effects of Rationally Designed Peptides against Planktonic Cells and Pre-Formed Biofilm of Pseudomonas aeruginosa” (Antibiotics, 2023).
Ends that are not written are not given here.

What was measured:
[1] = system: Drug-Resistant P. aeruginosa (DRPa) 4007; experiment: microbe, parasite or virus in culture; type: cell-based, Pseudomonas aeruginosa; conditions: microdilution, 10 mM sodium phosphate pH 7.2 + 20% MH broth, 24 h at 37 °C, OD600, triplicate
Procedure: (§1) Pseudomonas aeruginosa ATCC 27853 (drug-sensitive strain) was obtained from the American Type Culture Collection and drug-resistant P. aeruginosa (DRPa)-3904, 4830, 4891, 4007, and 5018 were isolated from patients with otitis media in a hospital. DRPa strains were obtained from GC Lab (Yongin-Si, Gyeonggi-do, Korea) for identification and antibiotic susceptibility testing. All strains were grown in a Mueller–Hinton (MH) broth containing 0.5% NaCl under an aerobic condition at 37 °C.
(§2) Pregrown bacteria were suspended in 10 mM sodium phosphate (SP, pH 7.2) supplemented with 20% MH broth. Evaluation of antibacterial effects in variable ionic strengths was performed with the following buffers: 10 mM HEPES, 10 mM NaCl, pH 7.4 + 10% MH (buffer I), 10 mM HEPES, 150 mM NaCl, pH 7.4 + 10% MH (buffer II), 10 mM HEPES, 5 mM MgCl2, pH 7.4 + 10% MH (buffer III), and 10 mM HEPES, 150 mM NaCl, 5 mM MgCl2, pH 7.4 + 10% MH (buffer IV). Fifty µL of the cell suspension (1 × 10^6 colony forming unit (CFU)/mL) was added to fifty µL of two-fold serially diluted peptide solutions and antibiotics (0.125–256 µM), followed by incubation for 24 h at 37 °C. The positive growth control was bacterial suspension without peptides and antibiotics and the negative control was only medium. MICs were evaluated by measuring the turbidity of cell solutions at OD600 and were defined as the lowest concentration of peptide or antibiotics that inhibited visible bacterial growth. The assays were performed in triplicate.

[2] = system: Drug-Resistant P. aeruginosa (DRPa) 4830; experiment: microbe, parasite or virus in culture; type: cell-based, Pseudomonas aeruginosa; conditions: microdilution, 10 mM sodium phosphate pH 7.2 + 20% MH broth, 24 h at 37 °C, OD600, triplicate
Procedure: as §1, §2

[3] = system: Drug-Resistant P. aeruginosa (DRPa) 3904; experiment: microbe, parasite or virus in culture; type: cell-based, Pseudomonas aeruginosa; conditions: microdilution, 10 mM sodium phosphate pH 7.2 + 20% MH broth, 24 h at 37 °C, OD600, triplicate
Procedure: as §1, §2

[4] = system: Drug-Resistant P. aeruginosa (DRPa) 4891; experiment: microbe, parasite or virus in culture; type: cell-based, Pseudomonas aeruginosa; conditions: microdilution, 10 mM sodium phosphate pH 7.2 + 20% MH broth, 24 h at 37 °C, OD600, triplicate
Procedure: as §1, §2

[5] = system: Drug-Resistant P. aeruginosa (DRPa) 5018; experiment: microbe, parasite or virus in culture; type: cell-based, Pseudomonas aeruginosa; conditions: microdilution, 10 mM sodium phosphate pH 7.2 + 20% MH broth, 24 h at 37 °C, OD600, triplicate
Procedure: as §1, §2

[6] = system: Drug-Sensitive P. aeruginosa (ATCC 27853); experiment: microbe, parasite or virus in culture; type: cell-based, Pseudomonas aeruginosa; conditions: microdilution, 10 mM sodium phosphate pH 7.2 + 20% MH broth, 24 h at 37 °C, turbidity OD600, triplicate
Procedure: as §1, §2

planktonic DRPa 4007 = experiment: Growth inhibition of planktonic cells in BHI; type: cell-based, Pseudomonas aeruginosa; conditions: BHI broth, 24 h at 37 °C, OD600
Procedure: (§3) To investigate the growth inhibition of peptides and antibiotics against planktonic P. aeruginosa cells, a microdilution assay was applied. […] After 24 h incubation at 37 °C with agitation, the growth inhibition was calculated by the absorbance measurement of bacterial turbidity at 600 nm using a Microplate Reader (SpectraMax M5, Molecular Devices, Sunnyvale, CA, USA). The assay was performed in triplicate. The percentage of […] was calculated as follows:Growth inhibition (%) = 100 − ((OD600 in sample treatment − OD600 in untreated bacteria)/(OD600 in untreated sample − OD600 in untreated bacteria) × 100) Sample treatment: adding peptides or antibiotics in bacterial suspensions; untreated bacteria: culture medium without bacteria and samples; untreated sample: bacterial suspension without samples.

[7] = system: planktonic P. aeruginosa ATCC 27853; experiment: Growth inhibition of planktonic cells in BHI; type: cell-based, Pseudomonas aeruginosa; conditions: BHI broth, 24 h at 37 °C, OD600
Procedure: as §3

[8] = system: P. aeruginosa ATCC 27853 biofilm; experiment: Inhibition of biofilm formation, crystal violet staining; type: cell-based, Pseudomonas aeruginosa; conditions: BHI + 2% sucrose, 24 h at 37 °C, crystal violet OD570
Procedure: (§4) Sucrose was added to enhance bacterial biofilm formation. Unattached bacteria were removed by washing with SP buffer and the remaining biofilm was fixed with methanol for 15 min. After air-drying for 30 min at room temperature, the plate was stained with 0.1% crystal violet (CV) for 5 min, followed by carefully washing with water and adding 95% ethanol to each well. The absorbance of the plate at 570 nm was measured using a Microplate Reader. The experiment was performed in triplicate and the percentage of biofilm inhibition was calculated as follows:Biofilm inhibition (%) = 100 − ((OD570 in sample treatment − OD570 in untreated bacteria)/(OD570 in untreated sample − OD570 in untreated bacteria) × 100) Sample treatment: adding peptides or antibiotics in bacterial suspensions; untreated bacteria: culture medium without bacteria and samples; untreated sample: bacterial suspension without samples.

DRPa 4007 biofilm = experiment: as above; type: cell-based; conditions: Pseudomonas aeruginosa, BHI + 2% sucrose, 24 h at 37 °C, crystal violet OD570, triplicate
Procedure: as §4

[9] = system: P. aeruginosa DRPa 4007 biofilm; experiment: SEM analysis of biofilm on plastic coverslips; type: cell-based, Pseudomonas aeruginosa; conditions: peptides 64 µM, ciprofloxacin 256 µM, 24 h on 48 h biofilm
Procedure: Figure 6 Image analysis of P. aeruginosa DRPa 4007 using scanning electron microscopy (SEM).
DRPa 4007 biofilms were formed on the plastic coverslips (12 mm dimension, SPL life science, Pocheon-si, Korea) for 48 h in BHI broth containing 2% (w/v) sucrose (1 × 10^8 CFU/mL) in a 24-well plate. […] The coverslips were rinsed using SP buffer and prefixed in 50 mM HEPES buffer (pH 8.0) containing 5% (v/v) glutaraldehyde for 2 h. After washing with SP buffer, they were dehydrated using the OTTIX shaper (Diapath S.p.A, Bergamo, Italy) and chemical-dried using hexamethyldisilazane. The coverslips coated with gold were observed under a field emission scanning electron microscopy (JSM-7100F, JEOL Ltd., Tokyo, Japan).

[10] = system: Biofilm EPS of P. aeruginosa DRPa 4007; experiment: Reduction of biofilm EPS components, fluorescent dyes and fluorescence microscopy; type: cell-based, Pseudomonas aeruginosa; conditions: 64 µM, 24 h incubation; FITC-ConA, Nile red, DAPI, SYPRO red
Procedure: Figure 4 Eliminative action of peptides in biofilm extracellular polymeric substances (EPS). Biofilm EPS of P. aeruginosa DRPa 4007 in the absence or presence of peptides (64 µM) was stained by FITC-ConA for carbohydrates, Nile red for lipids, DAPI for nucleic acids, and SYPRO red for proteins and observed under fluorescence microscopy.
To investigate the eliminating ability of peptide, EPS components were analyzed using fluorescence microplate and microscopic analyses. After following the processes described in Section 3.7, the biofilm was washed with SP buffer and stained using four fluorescent dyes (DAPI for nucleic acids, Nile red for lipids, FITC-ConA for carbohydrates, and SYPRO red for proteins).

[11] = Pseudomonas aeruginosa, ATCC27853

Molecule | MIC [1] [µM] | MIC [2] [µM] | also measured
RRIWRRWIRI-NH2 [RWI-10] | 8 | 4 | 
O=C(O)c1cn(C2CC2)c2cc(N3CCNCC3)c(F)cc2c1=O [Ciprofloxacin] |  |  | MIC ([3]; Pseudomonas aeruginosa): > 256 µM; MIC ([1]; Pseudomonas aeruginosa): > 256 µM; MIC ([2]; Pseudomonas aeruginosa): 64 µM; MIC ([4]; Pseudomonas aeruginosa): > 256 µM; MIC ([5]; Pseudomonas aeruginosa): > 256 µM; MIC [6, 11]: 1 µM; antibacterial activity against planktonic cells (planktonic DRPa 4007): remarkably inhibited; growth inhibition of planktonic cells [7]: at very low concentrations; inhibition of biofilm formation [8]: dose-dependent manner; inhibition at 64 µM (DRPa 4007 biofilm): 2.3%; biofilm and bacteria on coverslip under SEM [9]: massive volume
RRIIRRIWRW-NH2 [RIW-10] | 8 | 16 | 
Cc1onc(-c2ccccc2)c1C(=O)N[C@@H]1C(=O)N2[C@@H]1SC(C)(C)[C@@H]2C(=O)O [oxacillin] |  |  | inhibition of biofilm formation [8]: dose-dependent manner; inhibition at 64 µM (DRPa 4007 biofilm): 3.4%
WIKKIWKKIK-NH2 [WIK-10] | 8 | 8 | 
KKIWKKWIKI-NH2 [KWI-10] | 8 | 8 | 
NC[C@H]1O[C@H](O[C@H]2[C@H](O)[C@@H](O[C@H]3O[C@H](CO)[C@@H](O)[C@H](N)[C@H]3O)[C@H](N)C[C@@H]2N)[C@H](N)C[C@@H]1O [Tobramycin] |  |  | MIC [6, 11]: 0.25 µM
KKIIKKIIKKIWKW-NH2 [KIW-14] | 2 | 2 | 
KKIIKKIWKW-NH2 [KIW-10] | 16 | 16 | 
WIKKIWKKIIKKIK-NH2 [WIK-14] | 1 | 2 | 
CC(C)(O/N=C(\C(=O)N[C@@H]1C(=O)N2C(C(=O)[O-])=C(C[n+]3ccccc3)CS[C@H]12)c1csc(N)n1)C(=O)O [Ceftazidime] |  |  | MIC [6, 11]: 1 µM; antibacterial activity against planktonic cells (planktonic DRPa 4007): remarkably inhibited; growth inhibition of planktonic cells [7]: at very low concentrations
KKIWKKWIKKIIKI-NH2 [KWI-14] | 1 | 2 | 
CC[C@H](C)[C@H](NC(=O)CN)C(=O)NCC(=O)N[C@@H](C)C(=O)N[C@H](C(=O)N[C@@H](CC(C)C)C(=O)N[C@@H](CCCCN)C(=O)N[C@H](C(=O)N[C@@H](CC(C)C)C(=O)N[C@H](C(=O)N[C@H](C(=O)NCC(=O)N[C@@H](CC(C)C)C(=O)N1CCC[C@H]1C(=O)N[C@@H](C)C(=O)N[C@@H](CC(C)C)C(=O)N[C@H](C(=O)N[C@@H](CO)C(=O)N[C@@H](Cc1c[nH]c2ccccc12)C(=O)N[C@H](C(=O)N[C@@H](CCCCN)C(=O)N[C@@H](CCCNC(=N)N)C(=O)N[C@@H](CCCCN)C(=O)N[C@@H](CCCNC(=N)N)C(=O)N[C@@H](CCC(N)=O)C(=O)N[C@@H](CCC(N)=O)C(N)=O)[C@@H](C)CC)[C@@H](C)CC)[C@@H](C)O)[C@@H](C)O)C(C)C)C(C)C [Melittin] | 4 | 4 | MIC [3]: 2 µM; MIC [4]: 4 µM; MIC [5]: 4 µM; MIC [6]: 2 µM; removal of EPS components (carbohydrates, lipids, DNA, proteins) [10]: did not remove carbohydrates
WIKKIWKKIIKEIK-NH2 [WIKE-14] | 8 | 8 | 
WIRRIWRRIR-NH2 [WIR-10] | 2 | 4 | 
